{
  "source": "patent US20090214435A1",
  "about": "“Recombinant vector expressing MDR1 shRNA and thymidine kinase and use thereof” (Kyungpook National University Industry-Academic Cooperation …, priority 2007, published 2009)",
  "molecules": {"B1": {"name": "MDR1 shRNA: shRNA with sense and antisense sequences for target SEQ ID NO: 6 (5′-GGCCUAAUGCCGAACACAU-3′), CGAA loop, expressed from U6 promoter (nucleic acid)", "sense": "GATCCCGGCCTAATGCCGAACACATCGAAATGTGTTCGGCATTAGGCCTTTTTTCCAAC", "antisense": "TCGAGTTGGAAAAAAGGCCTAATGCCGAACACATTTCGATGTGTTCGGCATTAGGCCGG", "modifications": "the letters are possibly those of the target site"}},
  "key": {"HCT/Mock cells [1]": {"test_system": "HCT/Mock cells", "assay": "Cell proliferation assay (CellTiter 96 Aqueous One Solution) for ganciclovir sensitivity", "format": "cell-based, human", "conditions": "ganciclovir 0.1, 1, 10 μM, 4 days, FIG. 5B", "description": "(§1) Whether increased intracellular accumulation capacity of ganciclovir confirmed in Section 5-1 leads to the enhanced drug sensitivity of MTKG cells to ganciclovir was examined by a cell proliferation assay using CellTiter 96 Aqueous One Solution cell proliferation assay kit (Promega, USA), First, MTKG cells and HCT/Mock cells as a control group were inoculated at a cell density of 10^2 cells/well in a 96-well plate containing RPMI 1640 medium, followed by addition of ganciclovir at different concentrations (0, 0.1, 1, and 10 μM) and incubation for 4 days. Thereafter, 20 μl of detection solution were added to each well. The cells were incubated for 90 min at 37° C. and then measured absorbance at 490 nm using miroplate reader (BioRad, USA). From the experimental results shown in FIG. 5B, it was confirmed that proliferation of HCT-15 and HCT/Mock cells as a control group was not affected by administration of ganciclovir, whereas proliferation of the MTKG cells was affected even at a ganciclovir concentration of 0.1 μM or higher, thus representing increased drug sensitivity of the cell."}, "HCT-15 cells": {"test_system": "HCT-15 cells", "assay": "Cell proliferation assay (CellTiter 96 Aqueous One Solution) for ganciclovir sensitivity", "format": "cell-based, human", "conditions": "ganciclovir 0.1, 1, 10 μM, 4 days, FIG. 5B", "description": "as §1"}, "MTKG cells [2]": {"test_system": "MTKG cells", "assay": "Cell proliferation assay (CellTiter 96 Aqueous One Solution) for ganciclovir sensitivity", "format": "cell-based, human", "conditions": "ganciclovir concentration of 0.1 μM or higher, 4 days, FIG. 5B", "description": "as §1"}, "MTKG cells [3]": {"test_system": "MTKG cells", "assay": "Clonogenic assay, co-administration of ganciclovir and doxorubicin", "format": "cell-based, human", "conditions": "10 days", "protocol": "In order to confirm effects of co-administration of an anti-viral drug ganciclovir and an anticancer drug (doxorubicin) on cancer cells, clonogenic assay was carried out. For this purpose, first, MTKG cells were inoculated and cultured in a 100 mm plate containing RPMI 1640 medium, and the cells were then washed three times with a fresh medium. The cells were desorbed from the plate using trypsin-EDTA, and 1×10^3 cells were counted and inoculated into a 6-well plate with addition of ganciclovir (0.1 μCi) and doxorubicin at two different concentrations (10 and 25 nM), followed by incubation. 10 days after incubation, the culture medium was eliminated, and the cells were washed three times with a phosphate buffer and stained with a dye (Diff Quick staining kit). Colony formation was confirmed and colony count was made."}, "MTKG cells [4]": {"test_system": "MTKG cells", "assay": "Intracellular accumulation of [H3]-ganciclovir", "format": "cell-based, human", "conditions": "0.76 μCi/mL [H3]-ganciclovir, 45 min at 37° C., MTKG cells compared to HCT-15 and HCT/Mock cells, FIG. 5A", "protocol": "A degree of intracellular ganciclovir accumulation by the TK-GFP gene was investigated as follows. MTKG cells constructed in Section 1-3 of Example 1, and HCT-15 and HCT/Mock cells as a control group were cultured in 6-well plates containing RPMI 1640 medium for 48 hours, to which 0.76 μCi/mL of an isotope-labeled ganciclovir ([H^3]-Ganciclovir, Moravek, USA) was then added, followed by incubation at 37° C. for 45 min. Then, the plate was washed three times with a phosphate buffer and a cell lysis buffer (50 mM Tris-HCl, 150 mM NaCl, and 1% SDS) was added thereto to lyse the cells. For each cell lysate sample, an isotope activity was measured using a beta-counter."}, "HCT/Mock cells [5]": {"test_system": "HCT/Mock cells", "assay": "Clonogenic assay for anticancer drug sensitivity, control cells", "format": "cell-based, human", "conditions": "10 days", "protocol": "(§2) First, MTKG cells and HCT/Mock cells as a control group were inoculated at a cell density of 10^3 cells/well in a 6-well plate containing RPMI 1640 medium, followed by addition of an anticancer drug (doxorubicin or paclitaxel) at different concentrations (0, 1, 5, 10, 50, 100, 500, and 1000 nM) and incubation for 10 days. Thereafter, the culture medium was eliminated, and the cells were washed three times with a phosphate buffer and stained with a dye (Diff Quick staining kit). Colony formation was confirmed and colony count was made."}, "MTKG cells [6]": {"test_system": "MTKG cells", "assay": "Clonogenic assay for anticancer drug sensitivity, transfected cells", "format": "cell-based", "conditions": "Homo sapiens, 240 h, 10 days, read-out: inhibition of cell proliferation", "protocol": "as §2"}, "MTKG cells [7]": {"test_system": "MTKG cells", "assay": "Intracellular accumulation of [3H]-paclitaxel", "format": "cell-based, human", "conditions": "50 nM [3H]-paclitaxel, 2 hours at 37° C., MTKG cells compared to HCT-15 and HCT/Mock cells, FIG. 4A", "protocol": "A degree of intracellular drug accumulation by MDR1 shRNA was investigated. MTKG cells constructed in Section 1-3 of Example 1, and HCT-15 and HCT/Mock cells as a control group were cultured in 6-well plates containing RPMI 1640 medium for 48 hours, to which 50 nM of an isotope-labeled anticancer drug ([^3H]-paclitaxel, Moravek, USA) was then added, followed by incubation at 37° C. for 2 hours. Then, the plate was washed three times with a phosphate buffer, and a cell lysis buffer (50 mM Tris-HCl, 150 mM NaCl, and 1% SDS) was added thereto to lyse the cells. For each cell lysate sample, an isotope activity was measured using a beta-counter."}, "P-glycoprotein": {"test_system": "P-glycoprotein", "assay": "Western blot analysis of P-glycoprotein expression in transfected cells", "format": "cell-based, human", "conditions": "MTKG cells vs control cell line, FIG. 2B", "protocol": "In order to investigate whether intracellular incorporation of MDR1 shRNA inhibits expression of P-glycoprotein which is an expression product of the MDR1 gene, Western blot analysis was carried out for proteins isolated from HCT-15, HCT/Mock, and MTKG cells, respectively. The procedure will be briefly described as follows. HCT-15, HCT/Mock, and MTKG cells were lysed in a cell lysis buffer (containing 50 mM Tris-HCl, 150 mM NaCl, 1% Triton X-100, 1 mM CaCl2, 1 mM MgC2 and protease inhibitor cocktail (Roche, USA), pH 7.4). 30 μg of each protein in the cell lysates was subjected to electrophoresis on polyacrylamide gel containing 7% SDS, and the developed protein gel was transferred to a nitrocellulose membrane. Thereafter, anti-P-glycoprotein antibodies (clone C219, Calbiochem, USA) were diluted in a TBS-T solution (50 mM Tris-HCl, pH 7.6, 150 mM NaCl, 0.1% Tween 20) and were allowed to react and bind with a nitrocellulose membrane for more than 16 hours under refrigeration conditions. After the reaction was complete, the membrane was washed three times with a TBS-T solution, followed by binding reaction with horseradish peroxidase (HRP)-conjugated anti-mouse IgG antibodies (Santa Cruz, USA) for 1 hour at room temperature. […]"}, "MDR1 mRNA": {"test_system": "MDR1 mRNA", "assay": "RT-PCR analysis of MDR1 mRNA expression in transfected cells", "format": "cell-based, human", "conditions": "MTKG cells vs HCT-15 and HCT/Mock, FIG. 2A", "protocol": "Expression of MDR1 shRNA in MTKG cells of Section 1-3 of Example 1 was examined by RT-PCR For this purpose, total RNA was isolated from HCT-15, HCT/Mock, and MTKG cells, using Trizol reagent (Invitrogen) according to the manufacturer's instructions. Then, cDNA was prepared using 2 μg of the isolated total RNA as a template, and Oligo(dT)15 primer (Bionics, Seoul, Korea) and reverse transcriptase (Promega). PCR amplification for MDR1 mRNA was carried out using the prepared cDNA as a template and a pair of primers (SEQ ID NOS: 12 and 13). PCR was carried out as follows: initial denaturation of template cDNA at 94° C. for 2 min, followed by 30 cycles of denaturation at 94° C. for 30 seconds, annealing at 60° C. for 30 seconds and extension at 72° C. for 1 min."}},
  "data": [
    {"molecule": "Nc1nc(O)c2ncn(COC(CO)CO)c2n1", "note": "[ganciclovir]", "values": [
      {"measurement": "proliferation of cells on administration of ganciclovir", "setting": "HCT/Mock cells [1]", "value": "not affected"},
      {"measurement": "proliferation of cells on administration of ganciclovir", "setting": "HCT-15 cells", "value": "not affected"},
      {"measurement": "proliferation of cells on administration of ganciclovir", "setting": "MTKG cells [2]", "value": "affected"},
      {"measurement": "cell survival rate", "setting": "MTKG cells [3]; 0.1 μCi ganciclovir alone", "value": "61.1±4.1", "unit": "%"},
      {"measurement": "accumulation of ganciclovir", "setting": "MTKG cells [4]", "value": "higher accumulation"}
    ]},
    {"molecule": "COc1cccc2c1C(=O)c1c(O)c3c(c(O)c1C2=O)C[C@@](O)(C(=O)CO)C[C@@H]3O[C@H]1C[C@H](N)[C@H](O)[C@H](C)O1", "note": "[doxorubicin]", "values": [
      {"measurement": "cell survival rate", "setting": "MTKG cells [3]; 10 nM doxorubicin alone", "value": "78.8±7.8", "unit": "%"},
      {"measurement": "cell survival rate", "setting": "MTKG cells [3]; 25 nM doxorubicin alone", "value": "37.7±3.3", "unit": "%"},
      {"measurement": "inhibition of cell proliferation", "setting": "HCT/Mock cells [5]; doxorubicin concentration of 500 nM or higher, FIG. 4B", "value": "≥ 90", "unit": "%"},
      {"measurement": "inhibition at 0.05 µM", "setting": "MTKG cells [6]; doxorubicin concentration of 50 nM, FIG. 4B", "value": "≥ 90", "unit": "%"}
    ]},
    {"molecule": "CC(=O)O[C@H]1C(=O)[C@@]2(C)[C@H]([C@H](OC(=O)c3ccccc3)[C@]3(O)C[C@H](OC(=O)[C@H](O)[C@@H](NC(=O)c4ccccc4)c4ccccc4)C(C)=C1C3(C)C)[C@]1(OC(C)=O)CO[C@@H]1C[C@@H]2O", "note": "[paclitaxel]", "values": [
      {"measurement": "inhibition at 0.1 µM", "setting": "HCT/Mock cells [5]; Homo sapiens, 240 h, paclitaxel concentration of 100 nM, FIG. 4C, read-out: inhibition of cell proliferation", "value": "≥ 70", "unit": "%"},
      {"measurement": "accumulation of paclitaxel", "setting": "MTKG cells [7]", "value": "higher accumulation"},
      {"measurement": "inhibition at 0.01 µM", "setting": "MTKG cells [6]; paclitaxel concentration of 10 nM, FIG. 4C", "value": "≥ 70", "unit": "%"}
    ]},
    {"molecule": "B1", "values": [
      {"measurement": "P-glycoprotein expression", "setting": "P-glycoprotein", "value": "inhibition of P-glycoprotein expression"},
      {"measurement": "level of MDR1 mRNA", "setting": "MDR1 mRNA", "value": "decreased level of MDR1 mRNA"}
    ]}
  ]
}
